Columns and labels:
livid amaranth [1] = experiment: Soil treatment test for upland field; format: in vivo, Amaranthus lividus; parameters: key: 0 = normal development, 5 = all killed; conditions: 500 g/ha, 3 weeks, glass house 25° C.
In short: (§1)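 Using a pre-emergence soil application at 500 g/ha, treated pots were held 3 weeks in a glass house averaging 25° C. Injury was graded on a 0–5 scale against non-treated pots; "-" marks entries not investigated.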

soybean = experiment: Soil treatment test for upland field; format: in vivo; parameters: key: 0 = normal development, 5 = all killed; conditions: 500 g/ha, 3 weeks, glass house 25° C.
In short: as §1

corn = experiment: Soil treatment test for upland field; format: in vivo; parameters: key: 0 = normal development, 5 = all killed; conditions: 500 g/ha, 3 weeks, glass house 25° C.
In short: as §1

wheat [2] = experiment: Soil treatment test for upland field; format: in vivo; parameters: key: 0 = normal development, 5 = all killed; conditions: 500 g/ha, 3 weeks, glass house 25° C.
In short: as §1

green foxtail [3] = experiment: Soil treatment test for upland field; format: in vivo, Setaria viridis; parameters: key: 0 = normal development, 5 = all killed; conditions: 500 g/ha, 3 weeks, glass house 25° C.
In short: as §1

monochoria = experiment: Herbicidal test for paddy field; format: in vivo, Monochoria vaginalis; conditions: 500 g/ha, dropwise addition to paddy water at 1.5 leaf stage of barnyard grass; glass house 25° C., 3 weeks; rank 0-5 vs non-treated district
Method: (§2) Wagner pots, each having an area of 1/5000 are, were packed with Ube soil (alluvial soil) and planted with seeds or tubers of young rice plant, barnyard grass, bulrush, Cyperus serotinus Rottb., arrowhead and monochoria. Then, the pots were filled with water to a depth of 3 cm.
(§3) Each wettable powder of the desired Compounds (I) shown in Tables 1 to 21, 24, 25, 28 and 29 prepared in accordance with Example 2 was diluted with water containing a surfactant (0.05%) and subjected to dropwise addition treatment by using pipet so that an effective concentration of the compound (I) in each herbicide became 500 g/ha at 1.5 leaf stage of barnyard grass.
(§4) These plants were controlled in a glass house at an average temperature of 25° C. for 3 weeks, and then herbicidal effects thereof were investigated.
(§5) The herbicidal effects are evaluated according to the following 6 ranks as compared with non-treated district. (0: normal development, 1: Less damaged, 2: Slightly damaged, 3: Moderately damaged, 4: Severely damaged, 5: All killed). Incidentally, “-” in the column means not investigated.

common lambsquarters [4] = experiment: Soil treatment test for upland field; format: in vivo, Chenopodium album; parameters: key: 0 = normal development, 5 = all killed; conditions: 500 g/ha, 3 weeks, glass house 25° C.
In short: as §1

Large crabgrass [5] = experiment: Soil treatment test for upland field; format: in vivo, Digitaria adscendens; parameters: key: 0 = normal development, 5 = all killed; conditions: 500 g/ha, 3 weeks, glass house 25° C.
In short: as §1

annual bluegrass = experiment: Soil treatment test for upland field; format: in vivo, Poa annua; parameters: key: 0 = normal development, 5 = all killed; conditions: 500 g/ha, 3 weeks, glass house 25° C.
In short: as §1

barnyard grass [6] = experiment: Soil treatment test for upland field; format: in vivo, Eschinochloa crusgalli; parameters: key: 0 = normal development, 5 = all killed; conditions: 500 g/ha, 3 weeks, glass house 25° C.
In short: as §1

barnyard grass [7] = experiment: Herbicidal test for paddy field; format: in vivo, Eschinochloa crusgalli; conditions: 500 g/ha, dropwise addition to paddy water at 1.5 leaf stage of barnyard grass; glass house 25° C., 3 weeks; rank 0-5 vs non-treated district
Method: as §2, §3, §4, §5

livid amaranth [8] = experiment: Foliar spread test for upland field; format: in vivo, Amaranthus lividus; parameters: key: 0 = normal development, 5 = all killed (6 ranks vs. untreated); conditions: foliar spray, 500 ppm, 3 weeks, glass house 25° C.
In short: (§6)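 Plants grown about 2 weeks at 25 °C in volcanic ash soil were sprayed with wettable powder diluted to 500 ppm in water with 0.5% surfactant. After 3 weeks at 25 °C, damage was scored 0 (normal) to 5 (all killed) against untreated plants.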

green foxtail [9] = experiment: Foliar spread test for upland field; format: in vivo, Setaria viridis; parameters: key: 0 = normal development, 5 = all killed (6 ranks vs. untreated); conditions: foliar spray, 500 ppm, 3 weeks, glass house 25° C.
In short: as §6

common lambsquarters [10] = experiment: Foliar spread test for upland field; format: in vivo, Chenopodium album; parameters: key: 0 = normal development, 5 = all killed (6 ranks vs. untreated); conditions: foliar spray, 500 ppm, 3 weeks, glass house 25° C.
In short: as §6

Large crabgrass [11] = experiment: Foliar spread test for upland field; format: in vivo, Digitaria adscendens; parameters: key: 0 = normal development, 5 = all killed (6 ranks vs. untreated); conditions: foliar spray, 500 ppm, 3 weeks, glass house 25° C.
In short: as §6

wheat [12] = experiment: Foliar spread test for upland field; format: in vivo; parameters: key: 0 = normal development, 5 = all killed (6 ranks vs. untreated); conditions: foliar spray, 500 ppm, 3 weeks, glass house 25° C.
In short: as §6

Structure (SMILES)	Effects Livid amaranth (livid amaranth [1])	Effects Soybean (soybean)	Effects Corn (corn)	Effects Wheat (wheat [2])	Effects Green foxtail (green foxtail [3])	Effects Monochoria (monochoria)	Effects Common lambsquarters (common lambsquarters [4])	Effects Large crabgrass (Large crabgrass [5])	Effects Annual bluegrass (annual bluegrass)	Effects Barnyardgrass (barnyard grass [6])	Effects Barnyardgrass (barnyard grass [7])	Effects Livid amaranth (livid amaranth [8])	Effects Green foxtail (green foxtail [9])	Effects Common lambsquarters (common lambsquarters [10])	Effects Large crabgrass (Large crabgrass [11])	Effects Wheat (wheat [12])
CCC(Sc1cc(C(F)(F)F)nn1C)c1nc2cc(Cl)ccc2o1 (centres unmarked) [Compound 1-e-12]	4	0	0	0	2	5	3	5	4	3	–	–	–	–	–	–
CCC(Oc1cc(C)nc(SC)n1)c1nc2cc(Cl)ccc2o1 (centres unmarked) [Compound 1-e-64]	–	–	–	–	–	4	–	–	–	–	–	–	–	–	–	–
CCC(Oc1cc(C(F)(F)F)ncn1)c1nc2cc(Cl)ccc2o1 (centres unmarked) [Compound 1-e-66]	–	–	–	–	–	5	–	–	–	–	2	–	–	–	–	–
CCC(Oc1cc(C(F)(F)F)nn1C)c1nc2cc(C#N)c(F)cc2o1 (centres unmarked) [Compound 1-e-10]	5	2	1	0	5	4	5	5	5	4	5	5	5	5	5	1

— patent US7402548B2, “Benzoxazole compounds, process for producing the same and herbicides” (Kyoyu Agri Co., Ltd., priority 2000, dated 2008)
